Measured values as given in US10501428B2, “Thymoquinone derivatives for treatment of cancer” (United Arab Emirates University, priority 2014, dated 2019).
Read-outs that look alike come from different tables or passages of the source.

Columns and labels:
[1] = tested on: G-quadruplex DNA; experiment: Melting temperature curves of G-quadruplex and TQ complexes by CD; type: binding, human; details: for Tm: equimolar G-quadruplex and TQ 3.93×10^−6 M, Tris-KCl buffer pH 7.4, CD at 293 nm; for Δ Tm: versus G-quadruplex DNA alone (70.0 ° C.)
Procedure: (§1) A 2 ml of the stock single stranded DNA; 5′-[…]-3′ (SEQ ID NO: 1) was gently heated up to 95° C., incubated for 10 minutes and then left to cool to room temperature. Resultant solution was kept in fridge at 4° C. overnight.
Melting temperature curves for G-quadruplex and their TQs adducts were constructed using CD spectral measurements.
A 1 ml telomeric G-quadruplex (3.93×10^−6 M) in Tris-KCl-buffer pH7.4, was heated in 1-5° C. increments in the range 25-95° C. using 5 minutes incubation time intervals. CD spectra were recorded in the range 200-400 nm using 50 nm/min, 1 nm band width and 3 accumulations at each point. CD spectra were baseline corrected against blank solution and CD intensities at 293 nm were plotted versus temperature.
Similarly G-quadruplex-TQ1-8 1 mL complex solutions that were 3.93×10^−6 M of G-quadruplex and 3.93×10−6 M of TQs were heated up to 95° C. and measured. The solutions were prepared by mixing equi-molar amounts of G-quadruplex (27.3 μL, 1.44×10^−4 M) with TQ compounds 1-8 (39.30 μL, 1×10^−4 M) in 1 mL KCl-buffer, pH 7.4. CD spectra were baseline corrected and CD intensities at 293 nm were plotted versus temperature.

[2] = tested on: Human lung cancer cells A549; experiment: CellTiter-Glo cell viability assay, A549 lung cancer cells; type: cell-based; details: for cytotoxicity at 100 µM / IC50: Homo sapiens; for cytotoxicity at 100 µM: A549, 100 μM, relative to control (DMSO), read-out: decrease in cell viability; for IC50: A549, 24 hours
Procedure: (§2) Human lung cancer cells A549, human breast cancer cells MDA-MB-231 and colorectal cancer cells HT29, were used to test the antiproliferative activity of the synthesised compounds. Human lung cancer cells A549 were maintained in RPMI 1640 medium (Hyclone Laboratories, USA), human breast cancer cells MDA-MB-231 and colorectal cancer cells HT29 were maintained in DMEM medium (Hyclone Laboratories, USA). All media was supplemented with antibiotics (penicillin 50 U/ml; streptomycin 50 ug/ml) (Hyclone Laboratories, USA).
(§3) Cells were seeded at a density of 5,000 cells/well into 96-well plates. After 24 h, cells were treated for 24 and 48 h with different concentrations of compounds TQ1-5 and 8 (5-100 μM), in triplicate. Control cultures were treated with 0.1% DMSO. The effect of the compounds TQ1-8 on cell viability was determined using the CellTiter-Glo Luminescent Cell Viability assay (Promega Corporation, Madison, USA), based on quantification of ATP, which signals the presence of metabolically active cells. The luminescent signal was measured using the GLOMAX Luminometer system. Data were presented as proportional viability (%) by comparing the treated group with the untreated cells, the viability of which is assumed to be 100%.

[3] = tested on: G-quadruplex DNA; experiment: Fluorescence titration of TQs with G-quadruplex DNA (modified Scatchard); type: binding, human; details: non-linear regression, modified Scatchard equation
Procedure: as §1
To 3 ml of 5×10^−5 M of each of compounds TQ1-8 in Tris-KCl-buffer, pH 7.4, successive portions of G-quadruplex DNA (1.44×10^−4 M) were added. After each addition, the TQ solution was stirred for 20 seconds, incubated for 3 min and its emission was scanned in the range 300-600 nm using excitation Amax of 280 nm and slit width of 10.00 nm. Titration stopped when no change in fluorescence intensity was observed.
Scatchard plots were used to determine the binding affinity of the thymoquinone derivative compounds to G-quadruplex based on fluorescence titration, keeping the compounds concentration constant and varying DNA amounts.
Dependant binding sites may have synergistic (the first bound ligand encourage the next binding one) or antagonistic (the first bound ligand suppress the next binding one) effects on each other, a phenomenon known as the neighbor exclusion effect. Non-linear regression based on a modified Scatchard equation gave the binding constants and number of binding sites shown in Table 3. Compound TQ8 has shown the highest binding constant (1.33×10^7 M^−1) and compound TQ5 has shown the lowest binding constant (7.76×10^4 M^−1)

[4] = tested on: colorectal cancer cells HT29; experiment: CellTiter-Glo cell viability assay, HT29 colorectal cancer cells; type: cell-based; details: Homo sapiens, HT-29; for cytotoxicity at 100 µM: HT29, 100 μM, read-out: loss in cell viability
Procedure: as §2, §3

[5] = tested on: human breast cancer cells MDA-MB-231; experiment: CellTiter-Glo cell viability assay, MDA-MB-231 breast cancer cells; type: cell-based; details: for cytotoxicity at 100 µM: MDA-MB-231, 100 μM, read-out: loss in cell viability
Procedure: as §2, §3

[6] = tested on: Human lung cancer cells A549; details: value has been reported, read-out: IC50 A549 (parent TQ, reported); cited from earlier work

| SMILES | IC50 [2] | melting point | binding constant K [3] | IC50 ([4]; HT29, 24 hours) | IC50 ([5]; MDA-MB-231, 24 hours) | Tm [1] | Δ Tm [1] | cytotoxicity at 100 µM ([2]; 24 hours) | cytotoxicity at 100 µM ([2]; 48 hours exposure) | cytotoxicity at 100 µM ([4]; 24 hours exposure) | cytotoxicity at 100 µM ([4]; 48 hours exposure) | potency compared to the parent TQ molecule ([2]; A549 IC50 comparison) | cytotoxicity at 100 µM ([5]; 24 hours exposure) | cytotoxicity at 100 µM ([5]; 48 hours exposure) | IC50 [6] |
| --- | --- | --- | --- | --- | --- | --- | --- | --- | --- | --- | --- | --- | --- | --- | --- |
| CC1=C(NCCN2CCOCC2)C(=O)C(C(C)C)=CC1=O [TQ1, 5-Isopropyl-2-methyl-3-((2-morpholinoethyl)amino)-1,4-benzoquinone] | 74.3 µM | 92 to 95 °C | 113000 M⁻¹ |  |  | 79.0 °C | 9.0 °C | 15% | 33% |  |  |  |  |  |  |
| CC1=C(NCc2ccc(C(F)(F)F)cc2)C(=O)C(C(C)C)=CC1=O [TQ2, 5-Isopropyl-2-methyl-3-(4-trifluoromethylbenzylamino)-1,4-benzoquinone] | 84.3 µM | 110.5 to 112 °C | 567000 M⁻¹ |  |  | 76.0 °C | 6.0 °C | 32% | 57% |  |  |  |  |  |  |
| CC1=C(NCc2ccc(F)cc2)C(=O)C(C(C)C)=CC1=O [TQ3, 5-Isopropyl-2-methyl-3-(4-fluorobenzylamino)-1,4-benzoquinone] | 83.2 µM | 80 to 82.5 °C | 330000 M⁻¹ |  |  | 76.0 °C | 6.0 °C | 29% | 64% |  |  |  |  |  |  |
| CC1=CC(=O)C(C(C)C)=CC1=O [TQ, 2-isopropyl-5-methyl-1,1,4-benzoqinone] |  |  |  |  |  |  |  |  |  |  |  |  |  |  | 78.3 µM |

Second part, led by results:

| IC50 [2] | melting point | binding constant K [3] | IC50 ([4]; HT29, 24 hours) | IC50 ([5]; MDA-MB-231, 24 hours) | SMILES | Tm [1] | Δ Tm [1] | cytotoxicity at 100 µM ([2]; 24 hours) | cytotoxicity at 100 µM ([2]; 48 hours exposure) | cytotoxicity at 100 µM ([4]; 24 hours exposure) | cytotoxicity at 100 µM ([4]; 48 hours exposure) | potency compared to the parent TQ molecule ([2]; A549 IC50 comparison) | cytotoxicity at 100 µM ([5]; 24 hours exposure) | cytotoxicity at 100 µM ([5]; 48 hours exposure) | IC50 [6] |
| --- | --- | --- | --- | --- | --- | --- | --- | --- | --- | --- | --- | --- | --- | --- | --- |
| 88.7 µM | 83 to 84.5 °C | 95200 M⁻¹ |  |  | CC1=C(NCc2ccccc2)C(=O)C(C(C)C)=CC1=O [TQ4, 5-Isopropyl-2-methyl-3-(benzylamino)-1,4-benzoquinone] | 76.0 °C | 6.0 °C | 17% | 58% |  |  |  |  |  |  |
| 105 µM | 111 to 114 °C | 77600 M⁻¹ |  |  | CC1=C(NCc2cc(C(F)(F)F)cc(C(F)(F)F)c2)C(=O)C(C(C)C)=CC1=O [TQ5, 5-Isopropyl-2-methyl-3-(3,5-ditrifluoromethylbenzylamino)-1,4-benzoquinone] | 77.0 °C | 7.0 °C | 33% | 48% |  |  |  |  |  |  |
|  |  | 1.49e+06 M⁻¹ |  |  | CC1=C(NCCO)C(=O)C(C(C)C)=CC1=O [TQ6, 5-isopropyl-2-methyl-3-(2-hydroxyethylamino)-1,4-benzoquinone] | 80.0 °C | 10.0 °C |  |  |  |  |  |  |  |  |
|  |  | 1.17e+06 M⁻¹ |  |  | COc1ccc(CNC2=C(C)C(=O)C=C(C(C)C)C2=O)cc1OC [TQ7, 5-isopropyl-2-methyl-3-(3,4-dimethoxylbenzylamino)-1,4-benzoquinone] | 77.0 °C | 7.7 °C |  |  |  |  |  |  |  |  |
| 35 µM | 68 to 72 °C |  | 55.8 µM | 45.1 µM | CC1=C(N)C(=O)C(C(C)C)=CC1=O [TQ8, 3-amino-5-isopropyl-2-methyl-1,4-benzoquinone] |  |  | 99% | 100% | 97% | 99% | ≥ 200% | 83% | 98% |  |
